In general, IC50 refers to the concentration that gives 50% inhibition. The low end stands for greater potency, the high end for weaker potency.

The target in one assay is T1, TBK1 (Homo sapiens, UniProt Q9UHD2).
T1 construct: purchased Promega (Invitrogen is also named in the same bracket) V4158; PR8031B; V3991 (not assigned to the two kinases)
T1 sequence (Q9UHD2 1-729): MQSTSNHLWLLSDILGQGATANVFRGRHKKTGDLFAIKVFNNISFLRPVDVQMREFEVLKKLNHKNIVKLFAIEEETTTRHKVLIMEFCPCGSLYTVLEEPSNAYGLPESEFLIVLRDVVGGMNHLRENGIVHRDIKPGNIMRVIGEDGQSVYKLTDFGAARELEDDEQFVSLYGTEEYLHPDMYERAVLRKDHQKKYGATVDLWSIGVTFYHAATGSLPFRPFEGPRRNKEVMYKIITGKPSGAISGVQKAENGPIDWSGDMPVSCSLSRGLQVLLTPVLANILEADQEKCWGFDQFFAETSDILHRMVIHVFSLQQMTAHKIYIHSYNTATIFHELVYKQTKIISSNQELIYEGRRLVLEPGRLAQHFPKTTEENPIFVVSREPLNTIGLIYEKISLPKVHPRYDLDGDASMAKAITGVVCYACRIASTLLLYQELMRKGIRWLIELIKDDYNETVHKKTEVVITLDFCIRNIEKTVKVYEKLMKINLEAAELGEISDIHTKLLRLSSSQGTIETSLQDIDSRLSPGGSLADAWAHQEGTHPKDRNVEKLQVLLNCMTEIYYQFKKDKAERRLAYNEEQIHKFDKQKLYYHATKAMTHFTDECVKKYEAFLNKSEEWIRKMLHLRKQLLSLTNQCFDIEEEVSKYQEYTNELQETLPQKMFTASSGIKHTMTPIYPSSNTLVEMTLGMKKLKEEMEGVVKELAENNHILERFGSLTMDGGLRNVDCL
The assay is described as follows: ADP-Glo Kinase Assay, inhibition activity on TBK1. In kind it is biochemical. The procedure, abridged:
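In 40 mM Tris pH 7.5 with 20 mM MgCl2 and 0.1 mg/mL BSA, each enzyme (IKKε or TBK1 kinase system) was run according to the manufacturer's protocol. ADP formed was detected by ADP-Glo luminescence.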

A further assay deals with T2, IKKε (Homo sapiens, UniProt Q14164).
T2 construct: purchased Promega and/or Invitrogen V4158; PR8031B; V3991 (not assigned to the two kinases)
T2 sequence (Q14164 1-716): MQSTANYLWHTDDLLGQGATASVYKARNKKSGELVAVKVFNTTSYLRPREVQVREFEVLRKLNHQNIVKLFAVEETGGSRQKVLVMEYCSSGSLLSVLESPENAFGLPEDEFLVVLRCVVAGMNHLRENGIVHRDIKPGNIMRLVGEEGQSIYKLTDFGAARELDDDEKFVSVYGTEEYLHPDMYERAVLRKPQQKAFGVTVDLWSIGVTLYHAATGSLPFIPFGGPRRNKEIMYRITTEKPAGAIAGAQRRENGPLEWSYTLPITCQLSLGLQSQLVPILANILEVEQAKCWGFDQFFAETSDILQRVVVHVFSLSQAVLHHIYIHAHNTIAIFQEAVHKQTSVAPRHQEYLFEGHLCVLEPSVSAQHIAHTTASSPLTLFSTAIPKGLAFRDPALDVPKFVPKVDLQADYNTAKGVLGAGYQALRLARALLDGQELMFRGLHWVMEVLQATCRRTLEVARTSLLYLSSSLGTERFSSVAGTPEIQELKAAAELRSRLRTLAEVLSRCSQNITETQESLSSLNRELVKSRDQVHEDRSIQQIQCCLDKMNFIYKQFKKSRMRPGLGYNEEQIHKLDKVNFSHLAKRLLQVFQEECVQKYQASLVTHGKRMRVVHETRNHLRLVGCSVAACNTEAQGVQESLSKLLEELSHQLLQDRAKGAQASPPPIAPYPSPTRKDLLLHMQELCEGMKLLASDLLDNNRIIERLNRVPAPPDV
The assay is described as follows: ADP-Glo Kinase Assay, inhibition activity on IKKε. It counts as biochemical. On the procedure: Inhibition activities on IKKϵ and TBK1 were evaluated using the compounds of Examples 1 to 250.
The inhibition activities on IKKϵ and TBK1 were measured by a luminometer, IKKϵ/TBK1 Kinase Enzyme System (Promega, Ca# V4158; Invitrogen, PR8031B, Promega, Ca# V3991) and ADP-Glo Kinase Assay using ADP-Glo™ Kinase Analysis Kit (Promega, Ca# V9101) and a kinase reaction buffer [40 mM Tris(pH 7.5), 20 mM MgCl2, 0.1 mg/mL BSA] in accordance with the manufacturer's protocol.
(In general: ADP-Glo first removes unused ATP, then detects ADP through luciferase.)

As to `CC(C)NC(=O)N1CC=C(c2c[nH]c3ncc(-c4ccc(CN5CCOCC5)cc4F)cc23)CC1` [Example 20, 4-(5-(2-Fluoro-4-(morpholinomethyl)phenyl)-1H-pyrrolo[2,3-b]pyridin-3-yl)-N-isopropyl-3,6-dihydropyridine-1(2H)-carboxamide], the IC50 against TBK1 is 32 nM; against IKKε it was 46 nM.

`CC(C)NC(=O)N1CC=C(c2c[nH]c3ncc(-c4cc(CN5CCOCC5)ccc4F)cc23)CC1` [Example 21, 4-(5-(2-Fluoro-5-(morpholinomethyl)phenyl)-1H-pyrrolo[2,3-b]pyridin-3-yl)-N-isopropyl-3,6-dihydropyridine-1(2H)-carboxamide]: the half-maximal inhibitory concentration (IC50) against TBK1 came to 71 nM; against IKKε it was 160 nM.

For the compound `CCN1CCN(Cc2ccc(-c3cnc4[nH]cc(C5=CCN(C(=O)NC(C)C)CC5)c4c3)cc2)CC1` [Example 22, 4-(5-(4-((4-Ethylpiperazin-1-yl)methyl)phenyl)-1H-pyrrolo[2,3-b]pyridin-3-yl)-N-isopropyl-3,6-dihydropyridine-1(2H)-carboxamide], the IC50 is 10 nM against TBK1 and 20 nM against IKKε.

Consider `CC(C)NC(=O)N1CC=C(c2c[nH]c3ncc(-c4ccc(CN5CCN(C6CC6)CC5)cc4)cc23)CC1` [Example 23, 4-(5-(4-((4-Cyclopropylpiperazin-1-yl)methyl)phenyl)-1H-pyrrolo[2,3-b]pyridin-3-yl)-N-isopropyl-3,6-dihydropyridine-1(2H)-carboxamide], for which the IC50 is 5.7 nM at TBK1 and 6.6 nM at IKKε.

On to `CCN1CCN(Cc2cccc(-c3cnc4[nH]cc(C5=CCN(C(=O)NC(C)C)CC5)c4c3)c2)CC1` [Example 24, 4-(5-(3-((4-Ethylpiperazin-1-yl)methyl)phenyl)-1H-pyrrolo[2,3-b]pyridin-3-yl)-N-isopropyl-3,6-dihydropyridine-1(2H)-carboxamide], for which the 50% inhibitory concentration (IC50) against TBK1 stood at 12 nM; at IKKε it was 41 nM.

In the case of `CC(C)NC(=O)N1CC=C(c2c[nH]c3ncc(-c4ccc(CN5CCN(C)CC5)nc4)cc23)CC1` [Example 25, N-isopropyl-4-(5-(6-((4-methylpiperazin-1-yl)methyl)pyridin-3-yl)-1H-pyrrolo[2,3-b]pyridin-3-yl)-3,6-dihydropyridine-1(2H)-carboxamide], the IC50 against TBK1 was 16 nM; on IKKε, 51 nM.

On to `CCN1CCN(Cc2ccc(-c3cnc4[nH]cc(C5=CCN(C(=O)NC(C)C)CC5)c4c3)s2)CC1` [Example 26, 4-(5-(5-((4-Ethylpiperazin-1-yl)methyl)thiophen-2-yl)-1H-pyrrolo[2,3-b]pyridin-3-yl)-N-isopropyl-3,6-dihydropyridine-1(2H)-carboxamide], for which the IC50 amounted to 7.7 nM at TBK1 and 25 nM on IKKε.

As to `CC(C)NC(=O)N1CC=C(c2c[nH]c3ncc(-c4ccc(CN5CCCC5)o4)cc23)CC1` [Example 27, N-isopropyl-4-(5-(5-(pyrrolidin-1-ylmethyl)furan-2-yl)-1H-pyrrolo[2,3-b]pyridin-3-yl)-5,6-dihydropyridine-1(2H)-carboxamide], the IC50 was 570 nM on TBK1 and 1980 nM at IKKε.

`CC(C)NC(=O)N1CC=C(c2c[nH]c3ncc(-c4ccc(CN5CCCC5)s4)cc23)CC1` [Example 28, N-isopropyl-4-(5-(5-(pyrrolidin-1-ylmethyl)thiophen-2-yl)-1H-pyrrolo[2,3-b]pyridin-3-yl)-5,6-dihydropyridine-1(2H)-carboxamide]: the half-maximal inhibitory concentration (IC50) at TBK1 is 18 nM; at IKKε it was 58 nM.

On to `CC(C)NC(=O)N1CC=C(c2c[nH]c3ncc(-c4cccc(CN5CCOCC5)c4)cc23)CC1` [Example 29, N-isopropyl-4-(5-(3-(morpholinomethyl)phenyl)-1H-pyrrolo[2,3-b]pyridin-3-yl)-5,6-dihydropyridine-1(2H)-carboxamide], for which the IC50 came out at 16 nM against TBK1 and 29 nM against IKKε.

For `CC(C)NC(=O)N1CC=C(c2c[nH]c3ncc(-c4ccc(CN5CCOCC5)cc4)cc23)CC1` [Example 30, N-isopropyl-4-(5-(4-(morpholinomethyl)phenyl)-1H-pyrrolo[2,3-b]pyridin-3-yl)-5,6-dihydropyridine-1(2H)-carboxamide], the IC50 on TBK1 was found to be 4.5 nM; at IKKε it was 8.8 nM.

`CC(C)NC(=O)N1CC=C(c2c[nH]c3ncc(-c4cccc(C(=O)N5CCN(C)CC5)c4)cc23)CC1` [Example 31, N-isopropyl-4-(5-(3-(4-methylpiperazine-1-carbonyl)phenyl)-1H-pyrrolo[2,3-b]pyridin-3-yl)-5,6-dihydropyridine-1(2H)-carboxamide]: the values for the half-maximal inhibitory concentration (IC50) against TBK1 and against IKKε were 15 nM and 46 nM, respectively.

Take `CC(C)NC(=O)N1CC=C(c2c[nH]c3ncc(-c4ccc(C(=O)N5CCN(C)CC5)cc4)cc23)CC1` [Example 32, N-isopropyl-4-(5-(4-(4-methylpiperazine-1-carbonyl)phenyl)-1H-pyrrolo[2,3-b]pyridin-3-yl)-5,6-dihydropyridine-1(2H)-carboxamide]: the IC50 at TBK1 worked out at 7 nM; at IKKε, 13 nM.

`CC(C)NC(=O)N1CC=C(c2c[nH]c3ncc(-c4ccc(CN5CCN(C)CC5)s4)cc23)CC1` [Example 33, N-isopropyl-4-(5-(5-((4-methylpiperazin-1-yl)methyl)thiophen-2-yl)-1H-pyrrolo[2,3-b]pyridin-3-yl)-5,6-dihydropyridine-1(2H)-carboxamide]: the IC50 against TBK1 came to 1.1 nM; against IKKε, 6.9 nM.

Turning to `CC(C)NC(=O)N1CC=C(c2c[nH]c3ncc(-c4ccc(CN5CCN(C)CC5)o4)cc23)CC1` [Example 35, N-isopropyl-4-(5-(5-((4-methylpiperazin-1-yl)methyl)furan-2-yl)-1H-pyrrolo[2,3-b]pyridin-3-yl)-5,6-dihydropyridine-1(2H)-carboxamide], the IC50 was found to be 18 nM on TBK1 and 110 nM against IKKε.

Regarding `CC(C)NC(=O)N1CC=C(c2c[nH]c3ncc(-c4ccc(NC5CCOCC5)cc4)cc23)CC1` [Example 37, N-isopropyl-4-(5-(4-((tetrahydro-2H-pyran-4-yl)amino)phenyl)-1H-pyrrolo[2,3-b]pyridin-3-yl)-3,6-dihydropyridine-1(2H)-carboxamide], the IC50 against TBK1 stood at 10 nM; against IKKε, 13 nM.

For `CC(C)NC(=O)N1CC=C(c2c[nH]c3ncc(-c4ccc(OC5CCOCC5)cc4)cc23)CC1` [Example 38, N-isopropyl-4-(5-(4-((tetrahydro-2H-pyran-4-yl)oxy)phenyl)-1H-pyrrolo[2,3-b]pyridin-3-yl)-3,6-dihydropyridine-1(2H)-carboxamide], the results for the IC50 against TBK1 and against IKKε were 29 nM and 21 nM, respectively.

Regarding `CC(C)NC(=O)N1CC=C(c2c[nH]c3ncc(-c4ccc(N)c5c4CNC5=O)cc23)CC1` [Example 39, 4-(5-(7-Amino-1-oxoisoindolidin-4-yl)-1H-pyrrolo[2,3-b]pyridin-3-yl)-N-isopropyl-3,6-dihydropyridine-1(2H)-carboxamide], the IC50 against TBK1 and against IKKε was 35 nM throughout.

Regarding `CCC(CC)NC(=O)N1CC=C(c2c[nH]c3ncc(-c4ccc(CN5CCOCC5)s4)cc23)CC1` [Example 40, 4-(5-(5-(Morpholinomethyl)thiophen-2-yl)-1H-pyrrolo[2,3-b]pyridin-3-yl)-N-(pentan-3-yl)-3,6-dihydropyridine-1(2H)-carboxamide], the IC50 was determined as 74 nM at TBK1 and 170 nM against IKKε.

For the origin of these results see patent US10239873B2, “7-azaindole or 4,7-diazaindole derivatives as IKKϵ epsilon and TBK1 inhibitor and pharmaceutical composition comprising same” (GREEN CROSS CORPORATION, priority 2015, dated 2019).
